# In patent publication US20240376119A1, “SPIRO COMPOUND AND USE THEREOF” (CSPC Zhongqi Pharmaceutical Technology (Shijiazhuang) Co., …, priority 2021, published 2024):
# Legend:
# [1] = target: SHP2 (Homo sapiens (Human), UniProt Q06124); test: Assay for the inhibitory effect on the SHP2 enzyme (DiFMUP substrate, fluorescence); format: biochemical; settings: SHP2 activated with SHP-2 activated peptide; DiFMUP 10 μM; read-out: Enzymatic Effect (IC50 on SHP2)
# Protocol: 1× Assay buffer was prepared. A compound to be tested was diluted with DMSO solvent to a stock concentration of 10 mM. The compound to be tested was first diluted to an intermediate concentration of 1000 μM and then further diluted in a 3-fold gradient using DMSO. Therefore, the intermediate gradient dilution concentration of the compound to be tested was: 1000 μM, 3-fold dilution, 11 gradients. 100 nL of each concentration of the compound in the 384-well LDV echo plate was transferred to a new 384-well ELISA plate (assay plate) (corning, Cat #4514) by the Echo550 instrument. The final concentration of the compound to be tested was 10 μM, 3-fold dilution, 11 gradients in duplicate after 10 μL of the reaction reagent was added. The final DMSO concentration was 1%. For both negative and positive control wells, 100 nL DMSO would be transferred.
# A mixed liquor of 2× working SHP2 reagent (0.4 nM) and 0.5 μM SHP-2 activated peptide (BPS bioscience #79319-2) was prepared with 1× enzyme buffer. After the above-mixed liquor was incubated at 25° C. for 60 minutes, 5 μL of activated SHP2 kinase solution was transferred with a pipettor to the compound wells and the Max control wells (Corning, #4514) of the plate. Then 5 μL of 1× kinase buffer was transferred to the Min control wells. The plate was centrifuged at 1000 rpm for 30 seconds, sealed, and incubated in a 25° C. constant-temperature incubator for 30 minutes. A substrate solution of DiFMUP (#D6567, Invitrogen™) was prepared with 1× kinase buffer, and its concentration should be 2 times as the final concentration of the assay (DiFMUP final concentration: 10 μM). 5 μL of the prepared substrate solution was transferred with an electric pipettor into each well of the ELISA plate to start the reaction. The plate was centrifuged at 1000 rpm for 30 seconds, sealed, and incubated in a 25° C. constant-temperature incubator for 60 minutes. Read the plate at the excitation/emission wavelength of 358/455 nm after the ELISA plate was placed on the Spark machine.
# The RLU values were collected from Spark and the inhibition rate was calculated with the RLU values. Inhibition rate=(maximum value-sample RLU)/(maximum value-minimum value)*100. “Minimum value” was referred to the RLU of the enzyme-free control, and “maximum value” was referred to the RLU of the DMSO control. The data were fit by using the XLFit Excel module (version 5.4.0.8) to obtain IC50 values, and the results are shown in Table 1.
# [2] = system: human acute myeloid leukemia MV-4-11 cells; test: In vitro inhibitory effect on the proliferation of MV-4-11 cells (MTT, 72 h); format: cell-based; settings: MV4-11, 72 hours exposure
# Protocol: The human acute myeloid leukemia MV-4-11 cells used in the assay were purchased from Shanghai Institutes for Biological Sciences, Chinese Academy of Sciences. The complete culture medium required for cell culture was IMDM (GIBCO Company), which was supplemented with 10% fetal bovine serum (GIBCO Company). Cells were cultured in a 37° C., 5% CO2 incubator. The reagents used in the assay included dimethyl sulfoxide (purchased from Tianjin Kemiou Chemical Reagent Co., Ltd.), and MTT (Shanghai Topbiochem Co., Ltd., CAS. NO. 298-93-1). The test substance was sealed and stored at 4° C.
# Dimethyl sulfoxide was used as the solvent to fully dissolve the test substance and prepare a stock solution with a concentration of 5×10^−2 mol/L. The stock solution was stored at −20° C. A complete culture medium was used as the diluent, and the test substance was diluted to different concentrations in a gradient for later use. 100 µL/well (2×10^4 cells/well) of a suspension of MV-4-11 cells in the complete culture medium was added to a 96-well culture plate. 100 μL/well of the corresponding test substances at different concentrations were added respectively. 8 concentrations were set for each test substance, and 3 duplicate wells were set for each concentration. The plate was cultured in a 37° C., 5% CO2 incubator. 20 μL/well of MTT was added after 72 hours of exposure to the test substances. The plate was cultured for 4 hours in a 37° C., 5% CO2 incubator. The supernatant was discarded, and 150 μL/well of dimethyl sulfoxide was added. The plate contents were oscillated and mixed evenly. The microplate reader was used to detect the OD value at a wavelength of 550 nm. The well only containing the cell suspension without test substance was a control well, and the well only containing the complete culture medium was a blank well. The inhibition rate of the cell growth was calculated with the following formula: • Inhibition rate=(ODcontrol well-ODtest well)/(ODcontrol well-ODblank well)*100%. According to the inhibition rates at each concentration, SPSS software was used to calculate the half inhibitory concentration IC50 value.
# [3] = system: human lung adenocarcinoma NCI-H441 cells; test: In vitro inhibitory effect on the proliferation of NCI-H441 cells (3D CellTiter Glo, 5 days); format: cell-based; settings: 120 h, 3D cell viability
# Protocol: The human lung adenocarcinoma cell NCI-H441 used in the assay was purchased from ATCC. The complete culture medium required for cell culture was RPMI 1640 Medium (GIBCO Company), which was supplemented with 10% fetal bovine serum (GIBCO Company). Cells were cultured in a 37° C., 5% CO2 incubator. The reagents used in the assay included dimethyl sulfoxide (purchased from Sigma), a 3D Cell Viability assay kit (purchased from Promega), and the control substance TW-45 used in the assay was obtained homemade. The test substance was sealed and stored at 4° C.
# Dimethyl sulfoxide was used as the solvent to fully dissolve the test substance and prepare a stock solution with a concentration of 1×10^−2 mol/L. The stock solution was stored at −20° C. A complete culture medium was used as the diluent, and the test substance was diluted to different concentrations in gradient for later use (the final test concentration was 10000, 3333, 1111, 370, 123, 41, 13.7, 4.5, 1.5, and 0.5 nM). Cells were cultured in a 37° C., 5% CO2 incubator for 5 days. Detection was made on the fifth day. 30 μL of reagent (Celltiter Glo Assay Kit-3D) was added to each well and the plate was shaken on a plate oscillator (protected from light) for 30 minutes. The plate was incubated at room temperature (protected from light) for 120 minutes. Chemiluminescence values were recorded with a Multiplate reader. […]
# [4] = Mouse tolerance assay (once daily for 7 consecutive days); format: in vivo; settings: female ICR mice
# Protocol: • Assay animals: ICR mice, female, 5 weeks old • Solvent: 2% DMSO+98% (0.5% MC), treated by sufficient vortex and sonicated to obtain a uniform suspension • Assay method: Female ICR mice were divided into 4 groups according to weight balance, with 5 mice in each group. The administration doses were 50 mg/kg and 200 mg/kg respectively. The compound was administrated once daily for 7 consecutive days.
# [5] = Mouse pharmacokinetic assay (intragastric administration, plasma HPLC-MS/MS); format: in vivo; settings: ICR mice
# Protocol: ICR mice were intragastrically administered with the compound at 10 mg/kg or 20 mg/kg. At different time points (0.25 h, 0.5 h, 1 h, 2 h, 4 h, 8 h, 24 h) after administration, the mice blood was collected from the orbit. The collected whole blood was anticoagulated with heparin sodium and centrifuged at 3000 g to obtain mouse plasma samples. Methanol was added to precipitate proteins. The drug concentration in the mouse plasma after administration was determined by the HPLC-MS/MS method. A drug concentration-time curve was plotted and the pharmacokinetic parameters were calculated. The pharmacokinetic behavior in mice after the compound administration was described by means of non-compartment model statistical moment parameters.
# [6] = target: hERG channel (Homo sapiens (Human), UniProt Q12809); test: hERG assay, manual whole-cell patch clamp in CHO-K1 cell line stably expressing the hERG channel; format: cell-based
# Chain of hERG channel (Q12809 whole entry): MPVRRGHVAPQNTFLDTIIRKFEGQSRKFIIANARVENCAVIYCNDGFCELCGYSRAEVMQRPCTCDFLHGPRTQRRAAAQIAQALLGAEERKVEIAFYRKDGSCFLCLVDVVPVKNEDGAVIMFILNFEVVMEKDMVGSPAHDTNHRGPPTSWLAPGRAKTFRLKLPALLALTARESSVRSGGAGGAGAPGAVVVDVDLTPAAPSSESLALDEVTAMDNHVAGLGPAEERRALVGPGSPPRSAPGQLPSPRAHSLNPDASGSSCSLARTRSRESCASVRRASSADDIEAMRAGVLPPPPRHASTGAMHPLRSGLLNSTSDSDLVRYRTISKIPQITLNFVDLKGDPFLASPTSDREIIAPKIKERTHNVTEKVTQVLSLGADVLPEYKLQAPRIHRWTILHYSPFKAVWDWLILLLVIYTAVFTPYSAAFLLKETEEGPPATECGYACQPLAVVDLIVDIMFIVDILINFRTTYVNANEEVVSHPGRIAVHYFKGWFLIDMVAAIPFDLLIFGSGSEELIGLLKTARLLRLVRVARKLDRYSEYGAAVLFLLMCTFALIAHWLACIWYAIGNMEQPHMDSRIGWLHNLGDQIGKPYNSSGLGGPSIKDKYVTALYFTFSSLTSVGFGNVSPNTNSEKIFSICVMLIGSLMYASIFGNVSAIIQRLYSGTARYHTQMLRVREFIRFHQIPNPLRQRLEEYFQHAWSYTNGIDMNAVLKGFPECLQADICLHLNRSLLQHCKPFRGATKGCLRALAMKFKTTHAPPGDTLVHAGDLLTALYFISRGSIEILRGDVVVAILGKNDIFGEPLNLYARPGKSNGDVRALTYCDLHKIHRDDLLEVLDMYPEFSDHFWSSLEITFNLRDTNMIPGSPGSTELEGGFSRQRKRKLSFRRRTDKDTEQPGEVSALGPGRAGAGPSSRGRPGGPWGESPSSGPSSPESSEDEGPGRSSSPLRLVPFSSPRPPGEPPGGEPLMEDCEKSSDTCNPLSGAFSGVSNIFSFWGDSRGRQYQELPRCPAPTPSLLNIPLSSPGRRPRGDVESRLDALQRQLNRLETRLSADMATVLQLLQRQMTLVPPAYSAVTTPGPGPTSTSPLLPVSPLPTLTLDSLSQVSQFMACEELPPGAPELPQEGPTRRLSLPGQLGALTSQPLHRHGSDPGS
# Protocol: This assay included the following aspects: • A manual patch clamp technique was used to record the hERG current in the CHO-K1 cell line stably expressing the hERG channel; • The inhibition rate at each concentration was calculated based on the hERG tail current; • Each compound was tested at 5 concentrations to calculate the IC50 value; • Three cells were tested for each concentration; • One positive control drug was set.
# HERG currents were recorded using the whole-cell patch-clamp technique. The cell suspension was added to the cell tank and placed on the upright microscope stage. After the cell adherence, the cells were perfused with extracellular fluid at a flow rate of 1-2 mL/min. The glass microelectrode was drawn in two steps by a micropipette puller, and its resistance value in water was 2-5 MΩ. After establishing the whole-cell recording, the clamp potential was maintained at −80 mV. The hERG tail current was elicited by applying a depolarizing voltage to +60 mV upon the voltage stimulation and then repolarizing to −50 mV. All recordings were made after the current stabilization. Extracellular perfusion administration started from a low concentration, and each concentration lasted for 5-10 minutes until the current was stable, and then proceeded to the next concentration.
# The half inhibitory concentration (ICSO) of the test compound was derived from the best fit of the Logistic equation.
# [7] = mouse, po, intragastric, 20 mg/kg, plasma
Compound,IC50 [1],IC50 [2],also measured
CC(=O)c1nc(Sc2cccc(-c3ncco3)c2Cl)cnc1N1CCC2(CC1)Oc1ccccc1[C@H]2N [Compound 8],≤ 20 nM,≤ 20 nM,
COC(=O)c1nc(Sc2cccc(-c3ccn(C)n3)c2Cl)cnc1N1CCC2(CC1)Cc1ccccc1[C@H]2N [Compound 19],,≤ 20 nM,
"Nc1nc(N2CCC3(CC2)Oc2ccccc2[C@H]3N)cnc1Sc1ccnc(N)c1Cl [TW-45, reference compound]",,,"days of administration after which death appeared ([4]; 200 mg/kg once daily): 4 days; death by the 7th day (in words) ([4]; 200 mg/kg once daily): all animals of the positive control had died by the 7th day; MTD at 7 days ([4]; mouse, in vivo, once daily for 7 days, read-out: mouse maximum tolerated dose MTD): < 200 mg/kg"
"Nc1nc(N2CCC3(CC2)Oc2ccccc2[C@H]3N)c(C2COC2)nc1Sc1cccc(-c2ncco2)c1Cl [Compound 21, (R)-1′-(6-amino-5-((2-chloro-3-(oxazole-2-yl)phenyl)sulfanyl)-3-(oxetane-3-yl)pyrazine-2-yl)-3H-spiro[benzofuran-2,4′-piperidine]-3-amine]",≤ 20 nM,,
"CC(=O)c1nc(Sc2ccnc(-c3ncco3)n2)c(N)nc1N1CCC2(CC1)Oc1ccccc1[C@H]2N [Compound 24, (R)-1-(5-amino-3-(3-amino-3H-spiro[benzofuran-2,4′-piperidine]-1′-yl)-6-((2-(oxazole-2-yl)pyrimidine-4-yl)sulfanyl)pyrazine-2-yl)ethanone]",≤ 20 nM,,
"Nc1nc(N2CCC3(CC2)Oc2ccccc2[C@H]3N)c(F)nc1Sc1cccc(-c2ncco2)c1Cl [Compound 23, (R)-1′-(6-amino-5-((2-chloro-3-(oxazole-2-yl)phenyl)sulfanyl)-3-fluoropyrazine-2-yl)-3H-spiro[benzofuran-2,4′-piperidine]-3-amine]",≤ 20 nM,,
C=Cc1nc(Sc2cccc(-c3ncco3)c2Cl)c(N)nc1N1CCC2(CC1)Oc1ccccc1[C@H]2N [Compound 22],≤ 20 nM,,

# Now from value to compound, other results behind:
IC50 [1],IC50 [2],Compound,also measured
≤ 20 nM,,COC(=O)c1nc(Sc2ccnc(N)c2Cl)c(N)nc1N1CCC2(CC1)Oc1ccccc1[C@H]2N [Compound 58],
≤ 20 nM,,CC(=O)c1nc(Sc2ccnc(N)c2Cl)c(N)nc1N1CCC2(CC1)Oc1ccccc1[C@H]2N [Compound 62],IC50 [3]: 20 to 50 nM
≤ 20 nM,≤ 20 nM,"CC(=O)c1nc(Sc2cccc(-c3ncco3)c2Cl)c(N)nc1N1CCC2(CC1)Oc1ccccc1[C@H]2N [Compound 1, (R)-1-(5-amino-3-(3-amino-3H-spiro[benzofuran-2,4′-piperidine]-1′-yl)-6-((2-chloro-3-(oxazole-2-yl)phenyl)sulfanyl)pyrazine-2-yl)ethanone]","exposure and absorption in mice (in words) ([5]; intragastric administration): relatively high exposure in mice and both were well absorbed in vivo; Cmax [5, 7]: 2490 ng/mL; Tmax [5, 7]: 4 h; AUC(0-t) ([5]; mouse, po, intragastric, 20 mg/kg, plasma, read-out: AUC0-24 h): 16900 ng·h/mL; IC50 ([6]; CHO-K1 stable cell line, hERG tail current, 5 concentrations): > 10000 nM; inhibitory effect on the hERG channel (in words) ([6]; within the detection concentration range of the assay): no obvious inhibitory effect on the hERG channel"
≤ 20 nM,≤ 20 nM,[2H][C@@]1(N)c2ccccc2OC12CCN(c1nc(N)c(Sc3ccnc(N)c3Cl)nc1C(=O)OC)CC2 [Compound 59],
≤ 20 nM,,[2H][C@@]1(N)c2ccccc2OC12CCN(c1nc(N)c(Sc3cccc(-c4ncco4)c3Cl)nc1C(C)=O)CC2 [Compound 60],
≤ 20 nM,≤ 20 nM,"COC(=O)c1nc(Sc2cccc(-c3ncco3)c2Cl)c(N)nc1N1CCC2(CC1)Oc1ccccc1[C@H]2N [Compound 16, (R)-5-amino-3-(3-amino-3H-spiro[benzofuran-2,4′-piperidine]-1′-yl)-6-((2-chloro-3-(oxazole-2-yl)phenyl)sulfanyl)pyrazine-2-carboxylic acid methyl ester]",
≤ 20 nM,≤ 20 nM,[2H][C@@]1(N)c2ccccc2OC12CCN(c1nc(N)c(Sc3ccnc(N)n3)nc1C(C)=O)CC2 [Compound 57],
